Results from patent US20240009182A1, “REPURPOSED COMPOUND AS THERAPEUTIC FOR HPV-ASSOCIATED CANCERS” (The Chinese University of Hong Kong, priority 2022, published 2024).

Legend:
Assay type in all cases: cell-based, human
[1] = system: CaSki (HPV16-positive) cancer cells; test: Wound-healing (migration) assay, CaSki; details: 24 hrs, DMSO 98.46%±0.36%
Description: The representative images showing the cell migration of (FIG. 5A) CaSki (HPV16-positive) and (FIG. 5C) SCC25 (HPV-negative) cancer cells after scratching. Cells were seeded into 12-well plate and scratched when reached 100% confluence, followed by incubation with DMSO (vehicle control) or HBX 19818 at concentrations indicated for 24 hours. Cell migration was observed and recorded using a time-lapse microscope every 6 hours. The bar chart comparing the relative coverage areas of (FIG. 5B) CaSki and (FIG. 5D) SCC25 with DMSO or HBX 19818 (n=3). Data indicated are mean±SEM. *: P<0.05; **: P<0.01.
We performed a wound-healing assay to ascertain the ability of CaSki and SCC25 cells to migrate under HBX 19818 treatment. Cells were seeded into a 12-well plate and cultured to reach 100% confluency. Cells were then scratched to make artificial wounds on the monolayer of cells and incubated with either DMSO or HBX 19818 at 3 μM or 6 μM. Cells migration was monitored using time-lapse microscopy where images were taken 6-hourly for a duration of 24 hrs.

[2] = system: CaSki (HPV16-positive) cancer cells; test: Cell proliferation, cell counting kit-8 (CCK8) assay, CaSki; details: DMSO 10.38±0.90 folds
Description: FIGS. 3A-3B HBX 19818 inhibited proliferation of CaSki cells, but not SCC25 cells. The growth curves showing the cell proliferation of (FIG. 3A) CaSki (HPV16-positive) and (FIG. 3B) SCC25 (HPV-negative) cancer cells in the presence or absence of HBX 19818. Cell proliferation of CaSki was assessed using cell counting kit 8 (CCK8) assay. Cells were seeded into 96-well plates and incubated with either DMSO (vehicle control) or HBX 19818 at 3 μM or 6 μM for different days as indicated. Optical density (OD) value at 450 nm indicating relative proliferation was measured daily (n=3). Error bars indicate standard error of the mean (SEM).
We assessed the ability of CaSki (HPV16 positive cells) and SCC25, which are HPV-null cells, to proliferate using a cell counting kit-8 (CCK8) assay. This assay measures the ability of viable cells to metabolize soluble tetrazolium salt (WST-8) to orange formazan, in which the latter can be measured at optical density (OD) of […]. A day prior to drug treatment, CaSki and SCC25 were seeded into each well of 96-well plates at a density of 2000 cells/well in 100 μL of DMEM containing 10% FBS. The cells were treated with either DMSO (vehicle control) or HBX 19818 at 3 μM and 6 μM for 24, 72, and 96 hrs. […] The OD value of the medium at 450 nm was measured using LEDETECT 96 microplate reader (Labexim Products).

ubiquitin in CaSki cells = test: Endogenous ubiquitin level by western blotting in CaSki cells; details: 3 μM, independent of cycloheximide
Description: FIGS. 2A-2C HBX 19818 treatment destabilized the steady-state level of HPV16 E7. FIG. 2A. Immunoblots showing the protein levels of HPV16 E7, endogenous ubiquitin and USP7. CaSki cells were either transfected with expression plasmids pcDNA 3.1 (left panel) or pcDNA:Flag-USP7, treated with 3 μM of HBX 19818. After 24 hr, the cells were treated with 10 μg/ml cycloheximide at different durations, as indicated. As a control, the cells were also treated with 5 μg/ml MG132 (a proteasome inhibitor) for 2 hrs prior to adding cycloheximide. The cells were harvested and subjected to western blotting using the respective specific antibodies as indicated. Beta-actin (β-actin) was included as a loading control. CHX: cycloheximide; KDa: kilodalton. FIG. 2B. The curves showing the level of HPV16 E7 protein when co-overexpressed with USP7 or treated with HBX 19818 at different time points. The stability of HPV16 E7 was analyzed using the one-phase exponential decay function in GraphPad™ Prism 9. Error bars indicate standard error of the mean (SEM). FIG. 2C. […] Data are expressed as mean±SEM. ns: not significant, P>0.05; *: P<0.05.
We next wanted to assess whether HBX 19818 can reverse USP7-mediated deubiquitination of E7. […] The expression levels of Flag-USP7, endogenous ubiquitin, and E7 were detected using anti-Flag-, ubiquitin- and HPV16 E7-specific antibodies, respectively (FIG. 2A). […]

HBX 19818
Cell migration ability (relative coverage area) ([1]; 3 μM): 85.58%±4.39%
Cell migration ability (relative coverage area) ([1]; 6 μM): 53.24%±8.96%
Cell proliferation ability (relative OD 450 nm) ([2]; 3 μM): 7.82±1.14 folds
Cell proliferation ability (relative OD 450 nm) ([2]; 6 μM): 4.29±0.31 folds
Level of ubiquitin (ubiquitin in CaSki cells): increased level of ubiquitin
